Values joined by “and” are separate entries in the source; they are usually repeats but may differ in a detail not shown here. Identical values can stand only once. “Also recorded” adds a separate entry of the source. Like-named read-outs stand apart in the source and are kept apart here.
How the values were obtained:
HSV-1 (CLl0l) = assay: Antiherpes activity, HSV-1 (CLl0l) (Example 10); format: cell-based; conditions: Human alphaherpesvirus 1; 100 μM; read-out: plaque-forming units as % of control
Method: (§1) IPdR and 5-bromo-2-pyrimidinone-2-deoxyribonucleoside (BrPdR) were tested for antiherpes activity according to procedures described by Cheng, Y.-C., et al. Antimicrob. Agents Chemother (1976) 10, 119.

[1] = system: ACG (Tr7), acyclovir resistant strain of HSV1; assay: Antiherpes activity, acyclovir resistant strain of HSV1 (Tr7) (Example 10); format: cell-based, HSV-1; conditions: Human alphaherpesvirus 1, read-out: plaque-forming units as % of control
Method: as §1

[2] = system: HSV-1 and HSV-2 strains (herpes virus group); assay: Antiherpes activity, overall statement; format: cell-based
Method: as §1

HSV-2 (333) = assay: Antiherpes activity, HSV-2 (333) (Example 10); format: cell-based; conditions: Human alphaherpesvirus 2; 100 μM; read-out: plaque-forming units as % of control
Method: as §1

[3] = system: ACG (S1), acyclovir resistant strain of HSV1; assay: Antiherpes activity, acyclovir resistant strain of HSV1 (S1) (Example 10); format: cell-based, HSV-1
Method: as §1

HSV-2 (CEU-G) = assay: Antiherpes activity, HSV-2 (CEU-G) (Example 10); format: cell-based; conditions: Human alphaherpesvirus 2, read-out: plaque-forming units as % of control
Method: as §1

PFA-resistant strains = assay: Antiherpes activity, PFA-resistant strain (Example 10); format: cell-based
Method: as §1

HSV-2 (Strain 333) = assay: Antiviral activity in HSV-2 infected mice by various routes (Example 9); format: in vivo, Swiss-Webster female mice; conditions: for % ILS: excluding 45 day survivors
Method: The drugs were administered once a day for five days or twice daily (12 hour intervals) for 2.5 days beginning 24 hours postinfection. Mean body weight determinations of drug treated and control animals were made during the treatment period as an indicator of sublethal toxicity. Deaths were recorded through day 45.

[4] = system: virus-specific thymadine kinase; assay: Binding to the virus-specific thymidine kinase (Example 10); conditions: compared with BrPdR
[5] = Cytotoxicity / cell proliferation in KB cells (Example 8 Part B); format: cell-based, human; conditions: human, kb cells, 72 hour exposure
Method: (§2) To compare the toxicity of FPdR and IPdR human nasopharyngeal carcinoma KB cells obtained from the American Type Culture Collection were maintained as a monolayer in RPMI 1640 supplemented with 5% fetal bovine serum, 10 mM HEPES buffer (pH 7.4) and karamycin (100 μg/ml). Cells were maintained at 37° C. in a humidified atmosphere of 5% CO2 in air. Cell numbers were determined with an electronic particle counter (Particle Data, Inc., Elmhurst, Ill.).
(§3) For determination of drug effect on cell proliferation, cells were harvested from rapidly proliferting cultures by treatment with pancreation. Cell number was determined and plated in 24 well (6 mm well diameter) plates at a concentratin of 5×10^3 cells/ml. Drug exposures were initiated by a complete change of medium after overnight incubation. Following a 72 hour drug exposure […]. of thiazolyl blue was added and incubated for a further 4 hour period. The media from the plates was aspirated completely and […] DMSO was added to each well. The plates were placed on a shaker for 5 minutes and the blue solution transferred to 96 well plates and read at 540 nm with a scanning multiwell spectrophotometer (Biotek Instruments, Inc. Burlington, Vt.).

[6] = system: human nasopharyngeal carcinoma KB cells; assay: as above; format: cell-based
Method: as §2, §3

HSV-2 (333 strain) = assay: In vivo test of IPdR in mice implanted with HSV-2 (333 strain), survival (Example 4); design: species or system Swiss Webster Balb/C mice; conditions: 100 mg/kg twice daily for 2.5 days; for DAYS--SURVIVAL: deaths: 5 mice; for long term survivors (>30 days): out of 5 mice
Method: The substituted pyrimidinone of Example 3, 1-(2-deoxy)-β-D-ribofuranosyl)-5-iodo-2-pyrimidinone (IPdR) was tested in vivo. Three groups of five Swiss Webster Balb/C mice weighing from 19 to 23 grams were implanted with HSV-2 (333 strain) with a virus load of 5×10^5 plaque forming units.
Drug administration began one day following virus implant. The IPdR was administered subcutaneously to a first group of mice and intraperitoneally to a second group of mice. The third group of mice which performed as controls were not given any IPdR. The dosage of IPdR was at the rate of 100 mg/kg twice daily for 2.5 days for a total of 5 doses.

[7] = system: acyclovir (ACG) and BVdU resistant strains of HSV-1; assay: Antiherpes activity against acyclovir (ACG) and BVdU resistant strains of HSV-1, overall statement; format: cell-based
Method: as §1

[8] = system: BVdU resistant strain of HSV-1; assay: Antiherpes activity, BVdU resistant strain (Example 10); format: cell-based; conditions: Human alphaherpesvirus 1, read-out: plaque-forming units as % of control
Method: as §1

[9] = 100 mg/kg oral, 2 × 21/2, 72 hours after implant
[10] = 100 mg/kg oral, 2 × 21/2, innoculation dose 1 × 10^6 PFU

Q: Which results are given for `O=c1ncc(I)cn1[C@H]1C[C@H](O)[C@@H](CO)O1` [IPdR, 1-(2-Deoxy-β-D-Ribofuranosyl)-5-iodo-2-pyrimidinone]?
A: activity at 100 µM (HSV-1 (CLl0l)): 1.6%; activity at 100 µM [1]: 2.6%; antiherpes / anti-viral activity (words) [2]: significant antiherpes activities; also recorded: showing the higher activity; antiherpes / anti-viral activity (words) ([2]; listed as 1-(2-Deoxy-β-D-ribofuranosyl)-5-(iodo)-2-pyrimidinone): high level of anti-viral activity; activity at 100 µM (HSV-2 (333)): 2.8%; activity at 100 µM ([3]; Human alphaherpesvirus 1, read-out: plaque-forming units as % of control): 22%; cross resistance of the more highly ACG-resistant strain ([3]; S1 compared with Tr7): more cross resistance; activity at 100 µM (HSV-2 (CEU-G)): 9.3%; activity against PFA-resistant strains (PFA-resistant strains): retained full activity; activity at 100 µM (PFA-resistant strains; 100 μM, read-out: plaque-forming units as % of control): 0.1%; Survivors/Total (HSV-2 (Strain 333); 10 mg/kg IP, 2 × 21/2): 0/5; percent survival (HSV-2 (Strain 333); 10 mg/kg IP, 2 × 21/2): 0%; Mean Survival Time (days), of the mice that died (HSV-2 (Strain 333); 10 mg/kg IP, 2 × 21/2, control 9.3 ± 1.1): 12.8 ± 3.6 days; % ILS (HSV-2 (Strain 333); 10 mg/kg IP, 2 × 21/2): 133%; Survivors/Total (HSV-2 (Strain 333); 10 mg/kg oral, 2 × 21/2): 0/5; percent survival (HSV-2 (Strain 333); 10 mg/kg oral, 2 × 21/2): 0%; Mean Survival Time (days), of the mice that died (HSV-2 (Strain 333); 10 mg/kg oral, 2 × 21/2, control 10.6 ± 2.1): 12.8 ± 3.6 days; % ILS (HSV-2 (Strain 333); 10 mg/kg oral, 2 × 21/2): 123%; Survivors/Total (HSV-2 (Strain 333); 40 mg/kg IP, 2 × 21/2): 2/5; percent survival (HSV-2 (Strain 333); 40 mg/kg IP, 2 × 21/2): 40%; Mean Survival Time (days), of the mice that died (HSV-2 (Strain 333); 40 mg/kg IP, 2 × 21/2, control 9.3 ± 1.1): 10.0 ± 1.0 days; % ILS (HSV-2 (Strain 333); 40 mg/kg IP, 2 × 21/2): 108%; Survivors/Total (HSV-2 (Strain 333); 40 mg/kg oral, 2 × 21/2): 2/5; percent survival (HSV-2 (Strain 333); 40 mg/kg oral, 2 × 21/2): 40%; Mean Survival Time (HSV-2 (Strain 333); 40 mg/kg oral, 2 × 21/2, control 10.6 ± 2.1): 10.0 ± 1.0 days; % ILS (HSV-2 (Strain 333); 40 mg/kg oral, 2 × 21/2): 94%; Survivors/Total (HSV-2 (Strain 333); 100 mg/kg IP, 1 × 5): 7/10; percent survival (HSV-2 (Strain 333); 100 mg/kg IP, 1 × 5): 70%; Mean Survival Time (days), of the mice that died (HSV-2 (Strain 333); 100 mg/kg IP, 1 × 5, control 9.6 ± 1.1): 12.0 ± 4.4 days; % ILS (HSV-2 (Strain 333); 100 mg/kg IP, 1 × 5): 129%; Survivors/Total (HSV-2 (Strain 333); 100 mg/kg IP, 2 × 21/2): 6/10; percent survival (HSV-2 (Strain 333); 100 mg/kg IP, 2 × 21/2): 60%; Mean Survival Time (days), of the mice that died (HSV-2 (Strain 333); 100 mg/kg IP, 2 × 21/2, control 9.3 ± 1.1): 12.5 ± 1.3 days; % ILS (HSV-2 (Strain 333); 100 mg/kg IP, 2 × 21/2): 135%; Survivors/Total (HSV-2 (Strain 333); 100 mg/kg SC, 1 × 5): 2/5; percent survival (HSV-2 (Strain 333); 100 mg/kg SC, 1 × 5): 40%; Mean Survival Time (days), of the mice that died (HSV-2 (Strain 333); 100 mg/kg SC, 1 × 5, control 9.4 ± 1.1): 12.3 ± 1.2 days; % ILS (HSV-2 (Strain 333); 100 mg/kg SC, 1 × 5): 131%; Survivors/Total (HSV-2 (Strain 333); 100 mg/kg oral, 2 × 21/2): 20/20; percent survival (HSV-2 (Strain 333); 100 mg/kg oral, 2 × 21/2): 100%; Survivors/Total (HSV-2 (Strain 333); [9]): 5/5; percent survival (HSV-2 (Strain 333); [9]): 100%; Mean Survival Time (HSV-2 (Strain 333); 100 mg/kg oral, 2 × 21/2, control 9.8 ± 1.3): > 45 days; Mean Survival Time (HSV-2 (Strain 333); 100 mg/kg oral, 2 × 21/2, control 10.6 ± 2.1): > 45 days; Survivors/Total (HSV-2 (Strain 333); [10]): 4/5; percent survival (HSV-2 (Strain 333); [10]): 80%; Mean Survival Time (days), of the mice that died (HSV-2 (Strain 333); 100 mg/kg oral, 2 × 21/2, innoculation dose 1 × 10^6 PFU, control 10.0 ± 1.2): 14.0 days; % ILS (HSV-2 (Strain 333); [10]): 140%; toxicity to the host (HSV-2 (Strain 333); oral, intraperitoneal or subcutaneous): without significant toxicity to the host; activity against HSV-2 in vivo / life span of the host (HSV-2 (Strain 333); summary of Table 5): active against HSV-2 in vivo; also recorded: can significantly increase; binding to the virus-specific thymadine kinase [4]: stronger binding to the virus-specific thymadine kinase; activity at 72 h, 100 µM ([5]; 100 μm, read-out: % Growth): 75%; activity at 72 h, 200 µM ([5]; 200 μm, read-out: % Growth): 80%; IC50 at 72 h ([5]; cytotoxicity, read-out: ID50): > 200 µM; toxicity against the host cells [6]: low level of toxicity for the host cell; DAYS--SURVIVAL: deaths (HSV-2 (333 strain); intraperitoneal): 1 died on day 17; long term survivors (>30 days) (HSV-2 (333 strain); intraperitoneal): 4; DAYS--SURVIVAL: deaths (HSV-2 (333 strain); subcutaneous, 100 mg/kg): 1 died on day 11 and 2 died on day 13; long term survivors (>30 days) (HSV-2 (333 strain); subcutaneous): 2; DAYS--SURVIVAL: days average (HSV-2 (333 strain); subcutaneous, control 9.4 days average): 12 days; activity against acyclovir (ACG) and BVdU resistant strains [7]: somewhat reduced but still significant activity; activity at 100 µM [8]: 14%

Source: US4895937A, “5-ioso-2-pyrimidinone nucleoside” (The Research Foundation of State University of New York, priority 1988, dated 1990)
